In patent publication US20250223307A1, “MDM2/MDMX DOUBLE-TARGET INHIBITOR COMPOUND, PRODRUG, PHARMACEUTICAL COMPOSITION, AND PREPARATION METHOD THEREFOR AND USE THEREOF” (GLOBAL HEALTH DRUG DISCOVERY INSTITUTE, priority 2022, published 2025) one finds IC50 and solubility data, which are given here for 2 compounds.

One data set concerns the target T1, MDMX (Homo sapiens, UniProt O15151).
T1 sequence (O15151 2-134): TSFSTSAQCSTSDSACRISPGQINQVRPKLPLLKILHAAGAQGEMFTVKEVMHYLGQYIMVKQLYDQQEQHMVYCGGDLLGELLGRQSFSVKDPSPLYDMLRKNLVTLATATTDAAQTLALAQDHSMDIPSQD
As to the kind of experiment: HTRF test: inhibition of MDMX-p53 protein binding. For orientation: Time-resolved FRET reads energy transfer from a long-lived donor to a nearby acceptor.

A further data set addresses MDM2 (Homo sapiens, UniProt Q00987). As to the kind of experiment: HTRF test: inhibition of MDM2-p53 protein binding.
A short description of a further data set: Solubility test. The note with it: aqueous buffer, kinetic from dmso stock, phosphate buffer pH 7.4, 25° C. The data set is classed as physicochemical. On the procedure:
Test Example 2: Solubility Test
A test substance and a control drug progesterone were prepared with DMSO into a 10 mM stock solution
30 μL 10 mM stock solution prepared from the test substance and the control drug progesterone was taken and added into bottles in corresponding positions of 96-well sample plate in a specified order. Then, 970 μL of phosphate buffer with pH 7.4 was added into corresponding bottles of the sample plate. The experiments were two parallel experiments. A stirring rod was added into each bottle, and each bottle was covered with a polytetrafluoroethylene/silicon organic resin bottle plug. Then, a sample tray was placed in Eppendorf Thermomixer Comfort and vibrated at a rotating speed of 1100/min at 25° C. for 2 h. 2 h later, the bottle plug was removed, the stirring rod was taken away with a large magnet, and then samples were transferred to a filter plate from the sample plate. A vacuum pump generated a negative pressure to filter the samples. […]
A sample injection plate was placed in a sample injection tray of an automatic sample injection, and samples were evaluated through liquid analysis. […]
Analysis and quantification of the filter of the samples were completed by qualitatively and quantitatively analyzing the peak of a standard product with known concentration through liquid chromatography-mass spectrometry. […]

The test system of data set [1] is Blood cancer cells RS4; 11. As to the kind of experiment: CellTiter Glo test: growth inhibition of cells. The note with it: Homo sapiens, 11 cells, 72 h, cell viability. The data set is classed as cell-based. In general terms: ATP-based viability assays read luminescence as a measure of living cells.

Converted amounts (≈) assume the structure as drawn.

Sequence of MDM2 (Q00987 2-138): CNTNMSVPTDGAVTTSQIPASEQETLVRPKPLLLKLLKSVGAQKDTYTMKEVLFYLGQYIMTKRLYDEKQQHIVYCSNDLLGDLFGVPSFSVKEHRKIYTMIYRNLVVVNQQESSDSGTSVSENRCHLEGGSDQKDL

The IC50 is the concentration that gives 50% inhibition. As usually defined, the solubility is the dissolved amount per volume that the medium holds. A lower solubility goes with little dissolved substance. On to `N#Cc1ccc(C(COP(=O)(O)O)N2C(=O)N/C(=C\c3c[nH]c4cc(Cl)ccc34)C2=O)cc1` (stereo not shown) [Compound 40, (Z)-2-(4-((6-chloro-1H-indol-3-yl)methylene)-2,5-dioxoimidazolidin-1-yl)-2-(4-cyanophenyl)ethyl dihydrophosphate], for which the results for the IC50 at MDMX and at MDM2 were above 100 nM and 10 to 100 nM, respectively. In addition, the solubility at 2 h in “Solubility test” was 146 µg/mL (≈ 299 µM).

`N#Cc1ccc(C(CO)N2C(=O)N/C(=C\c3c[nH]c4cc(Cl)ccc34)C2=O)cc1` (stereo not shown) [Compound 38, (Z)-4-(1-(4-((6-chloro-1H-indol-3-yl)methylene)-2,5-dioxoimidazolidin-1-yl)-2-hydroxyethyl)benzonitrile]: the IC50 on MDMX is 10 to 100 nM; in data set [1], at most 1000 nM; on MDM2, below 10 nM. Also, in “Solubility test”, the solubility at 2 h came out at 0.075 µg/mL (≈ 0.184 µM).
